≈ marks a conversion by molar mass, not a printed value.

Test [1] has as its system DLD-1. As to the kind of experiment: Anticancer activity against human DLD1 cells expressing APC mutant assessed as reduction in cell viability by dual-glo luciferase assay. The class given is functional, cell-based.
For test [2], the system named is SW480. The experiment in a line: Antiproliferative activity against human SW480 cells assessed as reduction in cell viability incubated for 72 hrs by MTT assay. It counts as functional, cell-based. The conditions noted are these: SW480, 72 h. (In general: Formazan colour is commonly taken as a measure of viable cells.)
In test [3] the target is T1, Poly [ADP-ribose] polymerase tankyrase-1 (Homo sapiens, UniProt O95271).
T1 sequence (O95271 whole entry): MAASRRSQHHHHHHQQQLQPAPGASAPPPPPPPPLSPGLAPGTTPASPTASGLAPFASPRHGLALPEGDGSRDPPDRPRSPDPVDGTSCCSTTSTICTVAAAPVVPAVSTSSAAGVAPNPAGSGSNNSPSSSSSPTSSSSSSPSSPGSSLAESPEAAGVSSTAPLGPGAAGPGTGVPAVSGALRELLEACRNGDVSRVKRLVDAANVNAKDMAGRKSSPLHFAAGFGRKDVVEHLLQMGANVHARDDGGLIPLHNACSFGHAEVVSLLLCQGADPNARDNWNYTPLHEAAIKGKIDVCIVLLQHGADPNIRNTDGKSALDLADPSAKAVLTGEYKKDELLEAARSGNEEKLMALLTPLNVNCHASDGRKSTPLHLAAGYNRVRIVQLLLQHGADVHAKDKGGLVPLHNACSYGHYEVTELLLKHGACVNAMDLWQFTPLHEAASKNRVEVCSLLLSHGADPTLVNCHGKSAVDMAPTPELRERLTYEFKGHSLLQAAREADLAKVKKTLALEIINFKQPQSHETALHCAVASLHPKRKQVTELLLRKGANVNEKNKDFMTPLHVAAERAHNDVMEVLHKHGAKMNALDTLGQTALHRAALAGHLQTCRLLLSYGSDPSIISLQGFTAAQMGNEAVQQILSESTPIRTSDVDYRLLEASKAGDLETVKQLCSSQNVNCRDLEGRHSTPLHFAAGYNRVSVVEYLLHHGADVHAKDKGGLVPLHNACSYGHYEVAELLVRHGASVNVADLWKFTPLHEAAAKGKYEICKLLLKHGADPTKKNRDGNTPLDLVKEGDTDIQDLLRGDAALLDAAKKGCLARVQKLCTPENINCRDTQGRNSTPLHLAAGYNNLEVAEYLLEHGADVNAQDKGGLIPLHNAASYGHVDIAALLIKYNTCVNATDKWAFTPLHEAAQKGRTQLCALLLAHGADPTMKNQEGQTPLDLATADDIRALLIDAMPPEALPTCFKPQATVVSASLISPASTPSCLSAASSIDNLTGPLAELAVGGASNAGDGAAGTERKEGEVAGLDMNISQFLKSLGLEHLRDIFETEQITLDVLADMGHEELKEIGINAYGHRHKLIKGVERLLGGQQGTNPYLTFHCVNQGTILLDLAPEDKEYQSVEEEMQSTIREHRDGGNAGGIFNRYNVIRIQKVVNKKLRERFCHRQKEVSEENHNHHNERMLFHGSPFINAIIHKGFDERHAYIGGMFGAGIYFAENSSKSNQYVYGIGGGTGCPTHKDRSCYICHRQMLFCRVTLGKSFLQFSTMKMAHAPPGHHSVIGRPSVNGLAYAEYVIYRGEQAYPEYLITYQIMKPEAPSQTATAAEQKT
The experiment in a line: Inhibition of TNKS1 (unknown origin).

Test [4] has as its target T2, Poly [ADP-ribose] polymerase tankyrase-2 (Homo sapiens, UniProt Q9H2K2).
T2 sequence (Q9H2K2 whole entry): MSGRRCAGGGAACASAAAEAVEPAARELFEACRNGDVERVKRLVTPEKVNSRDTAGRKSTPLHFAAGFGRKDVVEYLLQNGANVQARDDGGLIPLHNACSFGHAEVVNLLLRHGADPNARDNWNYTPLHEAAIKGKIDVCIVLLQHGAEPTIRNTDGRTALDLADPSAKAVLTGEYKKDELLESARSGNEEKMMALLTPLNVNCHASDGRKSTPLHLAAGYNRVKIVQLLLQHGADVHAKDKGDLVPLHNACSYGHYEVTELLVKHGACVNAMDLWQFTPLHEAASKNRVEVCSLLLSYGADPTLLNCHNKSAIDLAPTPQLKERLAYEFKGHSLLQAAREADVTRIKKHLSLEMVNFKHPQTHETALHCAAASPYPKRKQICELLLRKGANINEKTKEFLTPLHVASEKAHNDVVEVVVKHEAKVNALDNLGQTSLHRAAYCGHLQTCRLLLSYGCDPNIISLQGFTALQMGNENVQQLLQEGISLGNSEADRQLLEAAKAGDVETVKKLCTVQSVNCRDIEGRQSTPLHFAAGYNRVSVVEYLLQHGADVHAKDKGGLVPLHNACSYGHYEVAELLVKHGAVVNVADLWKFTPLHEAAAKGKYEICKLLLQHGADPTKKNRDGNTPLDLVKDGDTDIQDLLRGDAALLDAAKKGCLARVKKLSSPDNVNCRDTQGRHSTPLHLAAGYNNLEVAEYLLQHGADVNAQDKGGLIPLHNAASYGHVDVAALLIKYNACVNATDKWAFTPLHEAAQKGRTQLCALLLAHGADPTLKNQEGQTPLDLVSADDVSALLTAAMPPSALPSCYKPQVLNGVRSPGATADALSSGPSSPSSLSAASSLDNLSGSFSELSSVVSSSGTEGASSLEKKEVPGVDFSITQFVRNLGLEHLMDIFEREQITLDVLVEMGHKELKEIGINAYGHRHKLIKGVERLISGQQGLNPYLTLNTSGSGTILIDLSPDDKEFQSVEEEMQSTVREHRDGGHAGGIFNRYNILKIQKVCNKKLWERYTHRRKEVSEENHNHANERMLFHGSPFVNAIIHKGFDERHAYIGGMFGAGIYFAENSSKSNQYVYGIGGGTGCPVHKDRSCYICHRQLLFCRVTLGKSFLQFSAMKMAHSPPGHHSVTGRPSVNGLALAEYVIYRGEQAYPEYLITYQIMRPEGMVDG
As to the kind of experiment: Inhibition of TNKS2 (unknown origin).

In test [5] the test system is DLD-1. As to the kind of experiment: Anticancer activity against human DLD-1 cells assessed as reduction in cell viability. It counts as functional, cell-based.
Test [6] relates to HCT-116. The experiment in a line: Anticancer activity against human HCT-116 cells assessed as decrease in cell growth incubated for 72 hrs by tryphan blue staining based cell counter analysis. The class given is functional. The following applies: HCT-116, 72 h.
The subject of test [7] is SW480. The experiment in a line: Anticancer activity against human SW480 cells assessed as reduction in cell proliferation incubated for 72 hrs by. The class given is functional, cell-based.
Test [8] has as its system SW480. The experiment in a line: Antiproliferative activity against human SW480 cells assessed as inhibition of cell growth incubated for 48 hrs by MTS assay. The class given is functional, cell-based. The conditions noted are these: SW480, 48 h.
For test [9], the system named is HCT-116. The experiment in a line: Antiproliferative activity against human HCT-116 cells assessed as reduction in cell viability incubated for 48 hrs by MTT assay. The class given is functional, cell-based.
For test [10], the system named is SW480. The experiment in a line: Antiproliferative activity against human SW480 cells assessed as reduction in cell viability incubated for 48 hrs by MTT assay. It counts as functional, cell-based. The following applies: SW480, 48 h.
The nature of test [11]: Inhibition of APC/ASEF (unknown origin) protein protein interaction incubated for 2 hrs by fluorescence polarization analysis. More on the design: species or system Homo sapiens. Background: Polarisation of emitted light reports the rotation of a fluorescent probe.
Test [12] has as its system HCT-116. The experiment in a line: Anticancer activity against human HCT-116 cells assessed as reduction in cell viability incubated for 24 hrs by MTT assay. It counts as functional, cell-based. The following applies: HCT-116, 24 h.
Test [13] concerns SW480. As to the kind of experiment: Anticancer activity against human SW480 cells assessed as reduction in cell viability incubated for 24 hrs by MTT assay. The class given is functional, cell-based. The conditions noted are these: SW480, 24 h.
The species entered for a further test is Mus musculus. As to the kind of experiment: Anticancer activity against C57BL/6J mouse small intestine organoid assessed as decrease in cell growth and measured after 4 days by qPCR analysis. It counts as functional. The conditions noted are these: 96 h. On the technique in general: Quantitative PCR measures a nucleic acid by following its amplification.

In general, IC50 refers to the concentration at which inhibition is half-maximal. Turning to `CCN(C(=O)C1CCN(S(=O)(=O)c2cc(Br)cc3c2N(C(C)=O)CC3)CC1)c1cccc(C)c1`, the IC50 in the test with DLD-1 [1] amounted to 900 nM. As for `C=C1C(=O)[C@]23CC[C@H]1C[C@H]2[C@@]12CCC[C@@](C)(COC1=O)[C@H]2C[C@H]3O`, the IC50 in the test on SW480 [2] was found to be 1700 nM. Turning to `COc1ccc(C2(CNC(=O)c3ccc(NC(=O)c4ccco4)cc3)CCOCC2)cc1`, the IC50 in test [3] was 1900 nM; in [4] it was 850 nM.

As to `NS(=O)(=O)c1ccc(NC(=S)N2CCN(C/C=C/c3ccccc3)CC2)cc1`, the IC50 in the test on DLD-1 [5] was found to be 18 nM. Take `C=C1C(=O)[C@]23C[C@H]1CCC2[C@@]1(C)C([C@@H](O)[C@@H]3O)[C@](C)(C(=O)O)CC[C@@H]1O` (some centres not stated): in the test with HCT-116 [6], the IC50 is 4070 nM.

With `CC(=O)O[C@@H]1C(=O)c2c(O)cc(O)cc2O[C@H]1c1ccccc1`, the IC50 with SW480 [7] amounted to 45.6 µg/mL (≈ 145 µM). Take `C=C1C(=O)[C@@]23[C@H](O)C[C@@H]4C(C)(C)CC[C@H](O)[C@@]4(COC(C)=O)[C@@H]2CC[C@H]1[C@H]3O`: the IC50 with SW480 [8] came to 16800 nM. For the compound `Cc1ccccc1-n1c(/C=C/c2nnc(-c3ccc(C#N)cc3)o2)nnc1-c1ccc(S(C)(=O)=O)cn1`, the figures for the IC50 in test [3] and in test [4] were 46 nM and 25 nM, respectively.

For the compound `C=C1C(=O)[C@@]23[C@H](O)CC4C(C)(C)[C@@H](OC(C)=O)CC[C@@]4(C)[C@@H]2[C@@H]2O[C@@H]2[C@@H]1[C@H]3O` (some centres not stated), the half-maximal inhibitory concentration (IC50) in the test with HCT-116 [9] (Homo sapiens, HCT-116, 48 h, read-out: IC50) worked out at 20000 nM; in the test with SW480 [10], 20000 nM. Consider `COc1cccc(C2=NN(c3ccc(C(=O)Nc4cc(C(F)(F)F)cc(C(F)(F)F)c4)cc3)C(c3ccc4c(ccn4C)c3)C2)c1` (configuration not stated), for which the results for the concentration for half-maximal inhibition (IC50) (in the test with HCT-116 [9] (time 48 hrs); in test [11]) were 1370 nM and 1020 nM, respectively. In the case of `CC(C)(C)[Si](OC[C@@]1(C)C2CC[C@@]3(CO3)[C@@H](C/C=C3/C(=O)OC[C@H]3O)[C@]2(C)CC[C@H]1O)(c1ccccc1)c1ccccc1` (some centres not stated), the IC50 in the test with HCT-116 [12] is 18200 nM; in the test with SW480 [13] it was 16100 nM.

In the case of `CS(=O)(=O)c1ccccc1N1CCN(c2nc(O)c3c(n2)CCSC3)CC1`, the IC50 in the test listed under Mus musculus was determined as 110 nM.

Source of the values: ChEMBL document CHEMBL5226288, “A perspective on medicinal chemistry approaches towards adenomatous polyposis coli and Wnt signal based colorectal cancer inhibitors” (Eur J Med Chem, 2021).
